Data published in patent US12564634B2, “Highly dispersible zinc phthalocyanine-silica nanotubes and preparation method therefor” (priority 2019, dated 2026).

Test: Dispersion stability analysis with LUMiSizer (transmittance profile under centrifugation)
Format: physicochemical
Conditions: aqueous dispersion, 10 min ultrasonication, 5 s intervals, total 55 s, steeper slope = lower dispersion stability, Test Group I value matches the sample stored one day after dispersing
Protocol: In this experimental example, the dispersion stability of highly dispersible zinc phthalocyanine-silica nanotubes was tested. The dispersion stability analysis was performed with the use of LUMiSizer™.
In this regard, the dispersion stability refers to the stability of a dispersed material, and the longer the dispersion state is maintained after being dispersed, the higher the dispersion stability. As a measurement method, there is a method of directly observing the change in dispersion stability of the sample. In this regard, to shorten the observation time, there is a method of letting the sample to experience harsh conditions such as centrifugal force or heating so that the change in dispersion stability of the sample can be checked in a quick time (refer to “Procedures to accelerate the evaluation of long-term stability”, ISO/TR 13097). For example, the sample may undergo centrifugation so that relatively quick sedimentation of particles can occur compared to gravity sedimentation. In this case, layer separation occurs. […] A detector detects the IR rays having transmitted through the sample, and the detected rays are represented in real time as a transmittance profile. It is a method of performing comparative analysis of dispersion stability between samples by quantifying the generation rate, pattern, etc. of such a profile. […]

## [Zn+2].c1ccc2c(c1)-c1nc-2nc2[n-]c(nc3nc([n-]c4nc(n1)-c1ccccc1-4)-c1ccccc1-3)c1ccccc21 [Control Group, zinc phthalocyanine]
  increase slope of the average value of the transmittance profile (rate in %/s): 17.70 %/s
